The target of this experiment is T1, factor VIIa/tissue factor (Homo sapiens, UniProt P08709).
T1 construct: human factor VIIa and TF (5 nM and 10 nM, respective final concentration)
Put plainly: Factor VIIa (FVIIa) chromogenic assay. The conditions noted are these: human factor VIIa 5 nM and TF 10 nM, chromogenic substrate S-2288 500 μM, 15 min preincubation, 25° C., pH 8.15. Type of experiment: biochemical. Here is the method: The ability of compounds of formula I to inhibit factor VIIa or other enzymes like factor Xa, thrombin, plasmin, or trypsin can be assessed by determining the concentration of the compound of formula I that inhibits enzyme activity by 50%, i.e., the IC50 value, which is related to the inhibition constant Ki. Purified enzymes are used in chromogenic assays. The concentration of inhibitor that causes a 50% decrease in the rate of substrate hydrolysis is determined by linear regression after plotting the relative rates of hydrolysis (compared to the uninhibited control) versus the log of the concentration of the compound of formula I. For calculating the inhibition constant Ki, the IC50 value is corrected for competition with substrate using the formula: Ki=IC50/{1+(substrate concentration/Km)} wherein Km is the Michaelis-Menten constant (Chen and Prusoff, Biochem. Pharmacol. 22 (1973), 3099-3108; I. H. Segal, Enzyme Kinetics, John Wiley & Sons, New York (1975) 100-125; which are incorporated herein by reference).
a) Factor VIIa (FVIIa) Assay
The inhibitory activity (expressed as inhibition constant Ki (FVIIa)) of compounds of formula I towards factor VIIa/tissue factor activity was determined using a chromogenic assay essentially as described previously (J. A. Ostrem et al., Biochemistry 37 (1998) 1053-1059, which is incorporated herein by reference). Kinetic assays were conducted at 25° C. in half-area microtiter plates (Costar Corp., Cambridge, Mass.) using a kinetic plate reader (Molecular Devices Spectramax 250). A typical assay consisted of 25 μl of human factor VIIa and TF (5 nM and 10 nM, respective final concentration) combined with 40 μl of inhibitor dilutions in 10% DMSOFTBS-PEG buffer (50 mM Tris, 15 mM NaCl, 5 mM CaCl2, 0.05% PEG 8000, pH 8.15). Following a 15 min preincubation period, the assay was initiated by the addition of 35 μl of the chromogenic substrate S-2288 (D-Ile-Pro-Arg-p-nitroanilide, Pharmacia Hepar Inc., 500 μM final concentration).

pKi: −log10 of the molar value.

T1 sequence (P08709 213-466 limits assumed): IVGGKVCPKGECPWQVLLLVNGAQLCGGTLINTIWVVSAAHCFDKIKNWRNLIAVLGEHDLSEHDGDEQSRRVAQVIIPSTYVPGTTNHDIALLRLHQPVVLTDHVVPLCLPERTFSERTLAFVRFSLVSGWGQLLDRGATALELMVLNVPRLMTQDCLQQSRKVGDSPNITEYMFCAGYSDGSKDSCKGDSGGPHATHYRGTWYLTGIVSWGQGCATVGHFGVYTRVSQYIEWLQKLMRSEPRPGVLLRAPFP
T1 sequence (P08709 61-212 limits assumed): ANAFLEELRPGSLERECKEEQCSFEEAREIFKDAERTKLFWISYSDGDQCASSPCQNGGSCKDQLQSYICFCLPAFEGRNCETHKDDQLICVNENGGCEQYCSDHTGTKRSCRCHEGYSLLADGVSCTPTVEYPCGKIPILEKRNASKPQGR
T1 sequence (P13726 33-295 partner): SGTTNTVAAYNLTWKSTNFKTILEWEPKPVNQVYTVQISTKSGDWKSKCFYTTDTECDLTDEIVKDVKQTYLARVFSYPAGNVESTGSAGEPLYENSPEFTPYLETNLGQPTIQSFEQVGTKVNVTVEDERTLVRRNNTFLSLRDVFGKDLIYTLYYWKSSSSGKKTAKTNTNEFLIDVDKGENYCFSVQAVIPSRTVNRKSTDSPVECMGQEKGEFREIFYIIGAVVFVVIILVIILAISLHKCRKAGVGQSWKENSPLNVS

Turning to `C=CCOC(=O)N[C@@H](Cc1ccc(C(=N)N)cc1)C(=O)N[C@@H](CCC(=O)O)C(=O)NC1c2ccccc2-c2ccc(N)cc21` (mixture of isomers) [Example 6, Alloc-pAph-Glu-((RS)-2-amino-9H-fluorene-9-yl)amide], the pKi (in general, the negative decadic logarithm of the Ki, by convention in mol/L) was 6.40.

Regarding `C=CCOC(=O)N[C@@H](Cc1ccc(C(=N)N)cc1)C(=O)N[C@@H](CCC(=O)O)C(=O)NCc1ccc(N)cc1` [Example 1, Alloc-pAph-Glu-(4-aminobenzyl)amide], the negative-log Ki (pKi) is 6.40.

As to `C=CCOC(=O)N[C@@H](Cc1ccc(C(=N)N)cc1)C(=O)N[C@@H](CCC(=O)O)C(=O)NCc1cccc(N)c1` [Example 2, Alloc-pAph-Glu-(3-aminobenzyl)amide], the pKi was 6.70.

The molecule `C=CCOC(=O)N[C@@H](Cc1ccc(C(=N)N)cc1)C(=O)N[C@@H](CCC(=O)O)C(=O)NCCc1ccc(N)cc1` [Example 3, Alloc-pAph-Glu-(2-(4-aminophenyl)ethyl)amide] showed a negative-log Ki (pKi) of 6.10.

`C=CCOC(=O)NC(Cc1ccc(C(=N)N)cc1)C(=O)NC(CCC(=O)O)C(=O)NCc1ccc(O)cc1O` (stereo not drawn) [Example 4, Alloc-pAph-Glu-(2,4-dihydroxybenzyl)amide]: the pKi is 6.15. This pKi and that of the molecule before are within 0.2 log units of each other.

The molecule `C=CCOC(=O)N[C@@H](Cc1ccc(C(=N)N)cc1)C(=O)N[C@@H](CCC(=O)O)C(=O)NCc1ccccc1N` [Example 5, Alloc-pAph-Glu-(2-aminobenzyl)amide] gave a negative-log Ki (pKi) of 6.22.

Take `C=CCOC(=O)N[C@@H](Cc1ccc(C(=N)N)cc1)C(=O)N[C@@H](CCC(=O)O)C(=O)NCCCNC(=O)OCC` [Example 7, Alloc-pAph-Glu-(3-ethoxycarbonylaminopropyl)amide]: the negative logarithm of the Ki (pKi) is 6.10.

As to `C=CCOC(=O)N[C@@H](Cc1ccc(C(=N)N)cc1)C(=O)N[C@@H](CCC(=O)O)C(=O)NCCCNS(=O)(=O)c1cc(Cl)cc(Cl)c1` [Example 10, Alloc-pAph-Glu-(3-(3,5-dichlorobenzenesulfonylamino)propyl)amide], the pKi is 6.17.

As for `C=CCOC(=O)N[C@@H](Cc1ccc(C(=N)N)cc1)C(=O)N[C@@H](CCC(=O)O)C(=O)NCc1cccc(CNS(=O)(=O)c2ccc3ccccc3c2)c1` [Example 11, Alloc-pAph-Glu-(3-((naphthalene-2-sulfonylamino)methyl)benzyl)amide], the pKi is 6.10.

`C=CCOC(=O)N[C@@H](Cc1ccc(C(=N)N)cc1)C(=O)N[C@@H](CCC(=O)O)C(=O)Nc1nc(CC(N)=O)cs1` [Example 12, Alloc-pAph-Glu-(4-carbamoylmethylthiazol-2-yl)amide]: the negative-log Ki (pKi) was 4.36.

On to `C=CCOC(=O)N[C@@H](Cc1ccc(C(=N)N)cc1)C(=O)N[C@@H](CCC(=O)O)C(=O)NCc1cnc(C)nc1N` [Example 13, Alloc-pAph-Glu-(4-amino-2-methylpyrimidin-5-ylmethyl)amide], for which the pKi was 5.72. Against the preceding molecule, the pKi is 1.36 log units higher.

Take `C=CCOC(=O)N[C@@H](Cc1ccc(C(=N)N)cc1)C(=O)N[C@@H](CC(=O)O)C(=O)NCc1cccc(N)c1` [Example 14, Alloc-pAph-Asp-(3-aminobenzyl)amide]: the pKi was 5.47. This pKi is 0.25 log units lower than that of the molecule before.

As to `C=CCOC(=O)N[C@@H](Cc1ccc(C(=N)N)cc1)C(=O)N[C@@H](CCCC(=O)O)C(=O)NCc1cccc(N)c1` [Example 15, Alloc-pAph-2-Aad-(3-aminobenzyl)amide], the pKi was 4.12.

With `C=CCOC(=O)N[C@@H](Cc1ccc(C(=N)N)cc1)C(=O)N[C@@H](CCC(=O)O)C(=O)NCc1cccc(CNS(=O)(=O)c2cccc3ccccc23)c1` [Example 18], the pKi is 5.74.

Molecule `C=CCOC(=O)N[C@@H](Cc1ccc(C(=N)N)cc1)C(=O)N[C@@H](CCC(=O)O)C(=O)NCc1cccc(CNS(=O)(=O)c2ccc(OC)cc2)c1` [Example 19] showed a pKi of 6.17.

Regarding `C=CCOC(=O)N[C@@H](Cc1ccc(C(=N)N)cc1)C(=O)N[C@@H](CCC(=O)O)C(=O)NCc1cccc(CNS(C)(=O)=O)c1` [Example 20], the negative logarithm of the Ki (pKi) is 5.69.

In turn, `C=CCOC(=O)N[C@@H](Cc1ccc(C(=N)N)cc1)C(=O)N[C@@H](CCC(=O)O)C(=O)NCc1cccc(CNS(=O)(=O)N(C)C)c1` [Example 21] had a pKi of 6.21.

Consider `C=CCOC(=O)N[C@@H](Cc1ccc(C(=N)N)cc1)C(=O)N[C@@H](CCC(=O)O)C(=O)NCc1cccc(CNS(=O)(=O)C=Cc2ccccc2)c1` [Example 22], for which the pKi is 5.84. Compared with the last molecule, the pKi is 0.37 log units lower.

In the case of `C=CCOC(=O)N[C@@H](Cc1ccc(C(=N)N)cc1)C(=O)N[C@@H](CCC(=O)O)C(=O)NCc1cccc(CNS(=O)(=O)c2ccc(Cl)s2)c1` [Example 24], the pKi was 6.05.

Consider `C=CCOC(=O)N[C@@H](Cc1ccc(C(=N)N)cc1)C(=O)N[C@@H](CCC(=O)O)C(=O)NCc1cccc(CNS(=O)(=O)c2ccc(F)cc2)c1` [Example 25], for which the pKi is 5.73.

As for `C=CCOC(=O)N[C@@H](Cc1ccc(C(=N)N)cc1)C(=O)N[C@@H](CCC(=O)O)C(=O)NCCCNS(=O)(=O)c1cccc(Br)c1` [Example 26], the negative-log Ki (pKi) is 6.52.

On to `C=CCOC(=O)N[C@@H](Cc1ccc(C(=N)N)cc1)C(=O)N[C@@H](CCC(=O)O)C(=O)NCCCNS(=O)(=O)c1ccc(OC)cc1` [Example 28], for which the negative-log Ki (pKi) was 6.55.

For `C=CCOC(=O)N[C@@H](Cc1ccc(C(=N)N)cc1)C(=O)N[C@@H](CCC(=O)O)C(=O)NC1CCN(S(=O)(=O)c2cccc(Br)c2)CC1` [Example 30], the negative-log Ki (pKi) is 6.37.

Take `C=CCOC(=O)N[C@@H](Cc1ccc(C(=N)N)cc1)C(=O)N[C@@H](CCC(=O)O)C(=O)NC1CCN(S(=O)(=O)c2cccc(C(F)(F)F)c2)CC1` [Example 31]: the pKi was 6.19. The pKi values of the last two molecules are within 0.2 log units of each other.

On to `C=CCOC(=O)N[C@@H](Cc1ccc(C(=N)N)cc1)C(=O)N[C@@H](CCC(=O)O)C(=O)NC1CCN(S(=O)(=O)c2cccc(Cl)c2)CC1` [Example 32], for which the negative-log Ki (pKi) was 6.25.

On to `C=CCOC(=O)N[C@@H](Cc1ccc(C(=N)N)cc1)C(=O)N[C@@H](CCC(=O)O)C(=O)NCc1cccc(CN)c1` [Example 37], for which the pKi is 5.43.

`C=CCOC(=O)N[C@@H](Cc1ccc(C(=N)N)cc1)C(=O)N[C@@H](CCC(=O)O)C(=O)NCCCN` [Example 38] had a negative-log Ki (pKi) of 5.42.

(Values after patent US6500803B1, “Factor VIIa inhibitors” (Aventis Pharma Deutschland GmbH, priority 1999, dated 2002).)
